In US11040056B2, “Benzimidazoles that enhance the activity of oligonucleotides” (The University of North Carolina at Chapel Hill, priority 2018, dated 2021):
pEC50: −log10 of the molar value. d = 2'-deoxy (DNA); m = 2'-O-methyl

Key:
[1] = test system: HeLaLuc705 cells; assay: SSO-mediated luciferase induction assay; type: cell-based; details: for pEC50: luciferase induction by SSO623
Protocol: FIG. 1B-1E. Effects with SSOs. FIG. 1B Structure of UNC2383. […] The cells were then rinsed and incubation continued for an additional 4 h in DMEM+10% FBS. Cells were rinsed twice in PBS and luciferase activity (RLU) and cell protein determined. The larger round symbol indicates the MM oligonucleotide. Means+/−SE. N=3. […] The cells were further incubated and then luciferase and protein determined. The total time of incubation in each case was 6 h. […] Means+/−SE. N=3.
(§1) FIG. 3. Effect and Cytotoxicity of Analogs. The effect of selected UNC2383 analogs on luciferase induction by SSO623 was measured as described in Methods and in the legend of FIG. 1B-1E. Cytotoxicity was measured using the Alamar Blue method as in FIG. 1E. MM10 is the effect of 10 uM compound in the presence of a mismatched oligonucleotide. Means and SE. N=3.
HeLaLuc705 cells are stably transfected with a firefly luciferase reporter whose coding sequence is interrupted by an abnormal intron. […] NIH-3T3-MDR cells are stably transfected with a human MDR1 cDNA coding for the P-glycoprotein (Pgp). We have described the maintenance and use of these cell lines elsewhere. (18, 20)
(§2) SSO-mediated luciferase induction assays were conducted as previously described. (18) In short, HeLaLuc705 cells in 24 well culture plates were preincubated with SSO623 followed by brief treatment with the small molecule; at intervals thereafter, luciferase activity and protein content were determined. […] (30)

[2] = test system: CFTR channel activity in human bronchial epithelial cells (HBEC) from a 3849+10 kbC-T homozygous patient; assay: Ussing chamber analysis of CFTR function in 3849+10 kbC-T HBEC; type: cell-based; details: SSO A 1 uM overnight, OEC 4 uM 2 hs luminal or serosal, 72 h, approved drugs in parallel
Excerpt: FIG. 11. CFTR activity restored to CF splicing mutation 3849+10 kbC-T using SSOs. SSOs were delivered in vitro by electroporation (˜100% efficiency), CF primary cells were differentiated on permeable supports and tested. Panel A. PCR analysis. The lower band is the correctly spliced CFTR. Panel B. Functional correction by Ussing chamber analysis.
FIG. 12. OEC Mediated Delivery of a SSO in 3849+10 kbC-T HBEC. Well-differentiated human bronchial epithelial cells (HBEC) derived from a 3849+10 kbC-T homozygous patient were incubated with corrective (LNA) SSO A from FIG. 1 (1 uM, overnight). Cells were then incubated with OEC UNC2383 in the luminal or serosal bath (4 uM, 2 hs). Both the SSO and OEC were added in cell growing medium. Seventy two hour later, HBEC were analyzed in Ussing chamber for CFTR function. Orkambi® was tested in parallel inserts.
Results: In vitro studies were performed in well-differentiated HBEC cells derived from a homozygous 3849+10 kbC→T CF patient (CF HBEC) treated with one dose of a specific SSO (1 uM, 12 hs) followed by one dose of OEC (apical or basolateral delivery, 2-4 uM, 2-3 hs). A significant increase of forskolin-stimulated CFTR activity in Ussing chamber analyses was observed 24-96 hs after SSO+OEC treatment compared to SSO alone treatment or vehicle. OEC was efficacious delivered apically as well as basolaterally. Transepithelial resistance and microscopy tests were implemented to monitor cytotoxicity, which was negligible for both SSO and OEC (FIG. 12). In vivo studies were performed in a transgenic mouse model that has a SSO-inducible EGFP reporter.
SSOs (100 nM) were introduced in airway epithelial cells derived from a 3849+10 kbC-T homozygous CF patient in suspension by electroporation using the Neon system, program A4. Cells were differentiated for 2 weeks in culture on human collagen-coated permeable supports (Millipore) before being tested in Ussing chambers following methods described in Kreda et al. […] “Characterization of Wild-Type and ΔF508 Cystic Fibrosis Transmembrane Regulator in Human Respiratory Epithelia” Mol. Biol. Cell 16(5):2154-2167 (100 uM Amiloride, Amil; 10 uM Forskolin, Fsk; 20 uM CFTR inhibitor 172). After Ussing chamber analysis, cells were lysed and assayed for RT-PCR as described in Wang et al 2017 (FIG. 11).
(SEQ ID NO:2), C (5′+G*mA*mG*mU*+C*mU*mU**mU*mA*+C*mU*mC*mA*mC*mC*+A*mU*mU*mU) (SEQ ID NO:3) (Locked Nucleic Acid (LNA)=+, PS=*, 2′OMe=m). In SSO sequences A, B, and C the underlined bases indicate oligo bases that match up to the bases in the mutated splice site in the 3849+10 kb C-T CFTR splicing mutation. MM623 or SSO623 sequences are described herein. […]

[3] = Alamar Blue cytotoxicity assay; type: cell-based; details: human, HeLa Luc705 cells; Alamar Blue cytotoxicity; read-out: TC50
Protocol: (§3) FIG. 1B-1E. Effects with SSOs. FIG. 1B Structure of UNC2383. FIG. 1C Compound 2383 enhances SSO effects. Cells were incubated in 24-well plates with 100 nM SSO623 or its mismatched control (MM) for 16 h in DMEM+10% FBS, rinsed and then treated with various concentrations of 2383 for 2 h. The cells were then rinsed and incubation continued for an additional 4 h in DMEM+10% FBS. Cells were rinsed twice in PBS and luciferase activity (RLU) and cell protein determined. The larger round symbol indicates the MM oligonucleotide. Means+/−SE. N=3. FIG. 1D Kinetics of 2383 action. Cells were preloaded with 100 nM SSO623 and then exposed to 2383 for various periods after which the compound was removed. The cells were further incubated and then luciferase and protein determined. The total time of incubation in each case was 6 h. FIG. 1E Cytotoxicity of 2383. HeLa Luc705 or NIH-3T3-MDR cells were exposed to 2383 as in (FIG. 1C) then incubated for 24 h in DMEM plus 10% FBS and tested using the Alamar Blue cytotoxicity assay. Means+/−SE. N=3.
as §1
(§4) SSO-mediated luciferase induction assays were conducted as previously described. (18) In short, HeLaLuc705 cells in 24 well culture plates were preincubated with SSO623 followed by brief treatment with the small molecule; at intervals thereafter, luciferase activity and protein content were determined. ASO mediated inhibition of MDR1 gene expression utilized an Alexa 488 labeled anti-P-glycoprotein antibody and flow cytometry to measure Pgp expression as described. (20) The anti-MDR1 sequence is 5′-CCATCccgacctcgcGCTCC-3′(SEQ ID NO: 5) (all phosphorothiopate with 2-O-Me residues in capitals). Cytotoxicity of 2383 was monitored using the Alamar Blue assay. (30)

[4] = test system: HeLa Luc705 cells; assay: Alamar Blue cytotoxicity assay; type: cell-based; details: ratio of cytotoxicity TC50 to luciferase induction EC50
Protocol: as §3, §1, §4

[5] = test system: lysosomes of HeLa Luc 705 cells; assay: Lysotracker Red accumulation assay; type: cell-based; details: 10 μM
Protocol: FIG. 9A-9D. Effects on lysosomes. FIG. 9A: Lysotracker uptake. Accumulation of Lysotracker Red in HeLa Luc 705 cells was measured after a 2 h exposure of cells to the indicated concentrations of various analogs. The lysosomotropic compound chloroquine was included as a positive control. Means of triplicate determinations are shown. The color-coded numbers refer to the fold increase in luciferase induction attained by the concentration of analog associated with the adjacent symbol on the graph. The numbers are taken from the data of FIG. 1C for UNC2383 and FIG. 4 for UNC4267, UNC4258, and UNC4428. FIG. 9B: LT50 vs TC50. […] Nonlinear regression was calculated using Prism software. The R^2 value for the plot is 0.91. FIG. 9C: 2383 vs chloroquine; luciferase induction. HeLa Luc705 cells were exposed to SSO623 and then treated with various concentrations of UNC2383 or chloroquine for 2 h and then tested for luciferase induction following the methods described in FIG. 1B-FIG. 1E. […]
The integrity of lysosomes was evaluated using the fluorescent probe Lysotracker Red (Thermo Fisher). […] Cells were thoroughly rinsed in PBS, lysed in 0.2% TX 100, and centrifuged briefly at 4000 rpm, and 100 uL of the supernate was distributed to black 96 well plates for analysis of fluorescence using a FLUOstar Omega 96 well microplate reader.

[6] = test system: P-glycoprotein (Pgp) expression in NIH-3T3-MDR cells; assay: ASO mediated inhibition of MDR1 gene expression (Pgp by flow cytometry); type: cell-based, mouse; details: 100 nM anti-MDR1 ASO 16 h; 10 μM UNC2383 2 h where used; 48 h
Protocol: FIG. 4. Effects with ASOs. Reduction of Pgp expression. NIH 3T3-MDR cells were incubated with 100 nM anti-MDR1 ASO or a mismatched (MM) control for 16 h in DMEM+1% FBS. Cells were rinsed and then treated with 10 μM UNC2383 for 2 h. The compound was removed, and the cells further incubated for 48 h. Expression of Pgp on the cell surface was determined by treating cells with Alexa 488 labeled anti-Pgp monoclonal antibody and binding quantitated by flow cytometry (PE(A)=units of fluorescence intensity). Treatment with ASO complexed with Lipofectamine 2000 (L2K) was a positive control. Y axis, cell counts; X axis, Alexa 488 fluorescence. […] Means±SE, N=3.
We also tested UNC2383 for its ability to affect ASOs rather than SSOs. The ASO was designed to inhibit expression of the MDR1 gene and its product the P-glycoprotein multidrug transporter. […] Cell surface expression of P-glycoprotein was monitored using an Alexa 488 labeled anti-Pgp monoclonal antibody and flow cytometry. […]
as §2, with “Cytotoxicity of 2383 was monitored using the Alamar Blue assay. […]” for “(30)”

[7] = mouse, in vivo
Protocol: All animal procedures were conducted in compliance with guidelines of the UNC Laboratory Animal Medicine Department and with federal guidelines. […] (20, 32) EGFP654 mice were administered 35 mg/kg of SSO623 or mismatched oligonucleotide in buffer by intraperitoneal injection on two consecutive days. One day later, mice received either 5 mg/kg of UNC2383 in a 1:1 DMSO/PEG400 solution or only the diluent, via intraperitoneal injection. […] After 24 h, the second cohort was euthanized and tissue and cardiac blood samples were obtained. […] (31) Blood samples were analyzed by the UNC Animal Clinical Chemistry Core facility.

For `CCN(CC)CCCC(C)Nc1ccnc2cc(Cl)ccc12` (centres unmarked) [Chloroquine, chloroquine, reference compound], the “SSO-mediated luciferase induction, comparison with chloroquine” value ([1]; FIG. 9C, 2 h, chloroquine also 16 h) was “little effect”.
In the case of `CC(C)(C)c1cc(C(C)(C)C)c(NC(=O)c2c[nH]c3ccccc3c2=O)cc1O` [Ivactafor®/Kalydeco®, reference compound], the “CFTR channel activity / functional correction” value [2] was “minimal effect” and the “CFTR channel activity / functional correction” value ([2]; listed as Kalydeco®) was “no effect”.
Work on `O=C(Nc1nc2ccccc2n1CCN1CCCC1)c1cc2cc(Br)ccc2o1` [UNC4251] yielded a pEC50 [1] of 5.70, a CC50 at 2 h [3] of 7 µM and a TC50/EC50 [4] of 3.5.
`COc1ccc2oc(C(=O)Nc3nc4ccccc4n3CCN3CCCC3)cc2c1` [UNC4253] showed a pEC50 [1] of 4.96, a CC50 at 2 h [3] of 48 µM and a TC50/EC50 [4] of 4.4.
With `O=C(Nc1nc2cc(Cl)ccc2n1CCN1CCCC1)c1cc2cc(Cl)ccc2o1` [UNC4425] the pEC50 [1] was 5.22, the CC50 at 2 h [3] was 12.5 µM and the TC50/EC50 [4] was 2.1.
Work on `Cc1ccc2c(c1)nc(NC(=O)c1cc3cc(Cl)ccc3o1)n2CCN1CCCC1` [UNC4426] yielded a pEC50 [1] of 5.46, a CC50 at 2 h [3] of 13 µM and a TC50/EC50 [4] of 3.7.
In the case of `O=C(Nc1nc2cc(Cl)c(Cl)cc2n1CCN1CCCC1)c1cc2cc(Cl)ccc2o1` [UNC4428], the “enhancement of SSO actions” value ([1]; 10 μM) was “quite strongly enhanced”, the pEC50 [1] was 5.00 and the CC50 at 2 h [3] was 50 µM. For the same molecule, the TC50/EC50 [4] was 5 and the “effect on lysotracker accumulation” value [5] was “little effect”.
For “ASO: anti-MDR1 antisense oligonucleotide 5′-CCATCccgacctcgcGCTCC-3′ (SEQ ID NO: 5) (antisense CCATCCCGACCTCGCGCTCC; sugars from the 5' end m5 d10 m5, all phosphorothioate, methylation of C and T or U not given here) [reference compound]”, the “Pgp expression on the cell surface” value [6] was “virtually no effect”.
With “SSO623: 2′-O Me phosphorothioate splice switching oligonucleotide 5′-GTTATTCTTTAGAATGGTGC-3′ (SEQ ID NO: 4) (all 2'-O-methyl, all phosphorothioate, T or U not given here)” the ALT [7] was 51 +/− 8 U/L, the AST [7] was 65 +/− 23 U/L and the BUN [7] was 23 ± 2 mg/dL. The Hb [7] was 13.8 ± 0.8 g/dL and the Platelets [7] was 824 +/− 266 × 10^3/ul.
